Source: US20240173255A1, “Polymeric Micelle Coated with Chain-Like Poorly Soluble Drug, Preparation Method and Application” (Hangzhou Hanjing Biotechnology Co., Ltd, priority 2021, published 2024)
Converted amounts (≈) assume the structure as drawn. One block for each compound: values may come before it.

Experiments:
[1] = Water solubility stated in background; conditions: background statement
[2] = Solubility of series A to E drugs in water and 10% Soluplus solution; assay type: physicochemical; conditions: for Solubility in 10% Soluplus: 10% Soluplus solution
Source text: The solubilities of the poorly soluble chain-like drugs of the series A to E according to the present disclosure in water and a 10% Soluplus solution are shown in Table 2.

[3] = Solubility of compound CPD4 in different solvents or carriers (HPLC of supernatant); assay type: physicochemical
Procedure: Taking the symmetric diselenoline molecule CPD4 from series A prepared according to Example 1 as an example, solubilities in different solvents and carriers were measured separately. A test method was conducted as follows: 1 mg of the compound was added into 1 mL of different solvents or carriers separately, ultrasonicated in a water bath for 10 min to fully dissolve the compound to obtain a mixture, and the mixture was stirred at ambient temperature for 12 h, and centrifuged, and a compound concentration in a resulting supernatant was determined by HPLC.

[4] = system: mouse lung cancer A549 cells; assay: Cancer cell inhibition test (EZMTT), A549; assay type: cell-based; conditions: 5 days culture
Procedure: (§1) Taking the polymeric micelle prepared according to Example 2 as an example: the polymeric micelle was added to a 96-well plate, and 1,000 each of […] lung cancer A549 cells and mouse liver cancer H22 cells were added to each well.

Stability test in blood = assay type: in vitro ADME; conditions: 37° C., 2 h, FIG. 4
Procedure: Taking the polymeric micelle prepared according to Example 2 as an example: in a 96-well plate, 10 μL of the polymeric micelle was added, then 190 μL of blood was added and shaken quickly to be uniform. At 37° C., a resulting mixture was taken out at preset time points of 5 min, 30 min, 60 min, and 120 min separately, and centrifuged at 3,000 rpm for 10 min to separate a plasma layer (upper layer) and a red blood cell layer (lower layer), each 100 μL. The plasma and red blood cell samples were treated using an organic solvent extraction method, and a concentration of CPD14 molecules in the samples was quantified and analyzed using HPLC (gradient method), while CPD14 molecules not entrapped by Soluplus were used as a control.

[5] = system: H22 mouse liver cancer subcutaneous tumor transplants; assay: Treatment test on subcutaneous tumor transplants in mice; assay type: in vivo; conditions: ICR mice, 20 mg/kg tail vein once a day for 10 days, tumors removed on 11th day
Procedure: 30 ICR mice weighing about 20 g were randomly divided into 3 groups, with 10 mice in each group. Liver cancer H22 cells were inoculated subcutaneously into the right armpit of mice. The next day, mice in Group 1 were injected with CPD14 injection without Soluplus prepared according to Example 2 at 20 mg/kg through the tail vein; mice in Group 2 waere injected with the polymeric micelle prepared according to Example 2 at 20 mg/kg through the tail vein; and mice in Group 3 were injected with the Soluplus blank micelle without drug at 20 mg/kg through the tail vein. The mice were injected once a day for 10 consecutive days, and the body weight of the mice was recorded and the status of the mice was observed every day. On the 11th day, the tumors of the mice were removed and measured.

[6] = Bioavailability test (pharmacokinetics) in ICR mice; assay type: in vivo, mouse; conditions: 10 mg/kg tail vein injection
Procedure: 36 Institute of Cancer Research (ICR) mice weighing about 20 g were randomly divided into 2 groups, with 18 mice in each group. The mice all were separately administered using a CPD14 injection without Soluplus entrapment prepared according to Example 2 and the polymeric micelle prepared according to Example 2 in the same concentration, at a dose of 10 mg/kg by tail vein injection. Blood was collected at 0.003 h, 0.17 h, 0.5 h, 1 h, 2 h, 4 h, 8 h, 12 h, and 24 h after administration, and a plasma concentration of CPD14 was measured after treating the whole blood or plasma.

[7] = system: mouse liver cancer H22 cells; assay: Cancer cell inhibition test (EZMTT), H22; assay type: cell-based; conditions: 5 days culture
Procedure: as §1

[8] = Solubilities of ethaselen and compounds of Examples 1 to 5 in water, DMSO and Soluplus solutions; assay type: physicochemical
Source text: (§2) The hydrophobic constants and solubilities of the selenium-containing glutaminase inhibitors from series A to E prepared according to Examples 1 to 5 of the present disclosure as well as the commercially available ethaselen in water, dimethylsulfoxide (DMSO), and Soluplus solutions are shown in Table 4.

Hydrophobic constant = assay type: physicochemical
Source text: as §2

[9] = Sodium acetate buffer (pH = 4.5)

Structure (SMILES): COc1ccc2[se]n(CCCCCCn3[se]c4ccc(O)cc4c3=O)c(=O)c2c1
water solubility [1]: 3.3 µg/mL (≈ 6.29 µM)

Structure (SMILES): O=c1c2ccccc2[se]n1CCCCCCn1[se]c2ccccc2c1=O [CPD4]
Solubility in 10% Soluplus [2]: 500 µg/mL (≈ 1050 µM)
Solubility in water [2]: 1 µg/mL (≈ 2.09 µM)
Dissolution multiple ([3]; Acetone): 275
Solubility ([3]; Acetone): 440 ± 40 µg/mL (≈ 920 µM)
Dissolution multiple ([3]; Acetonitrile): 263
Solubility ([3]; Acetonitrile): 420 ± 5 µg/mL (≈ 878 µM)
Dissolution multiple ([3]; DMF): 10819
Solubility ([3]; DMF): 17310 ± 320 µg/mL (≈ 36200 µM)
Dissolution multiple ([3]; DMSO): 21131
Solubility ([3]; DMSO): 33810 ± 700 µg/mL (≈ 70700 µM)
Dissolution multiple ([3]; Dichloromethane): 1981
Solubility ([3]; Dichloromethane): 3170 ± 160 µg/mL (≈ 6630 µM)
Dissolution multiple ([3]; Ethanol): 800
Solubility ([3]; Ethanol): 1280 ± 40 µg/mL (≈ 2680 µM)
Dissolution multiple ([3]; Ethyl acetate): 150
Solubility ([3]; Ethyl acetate): 240 ± 20 µg/mL (≈ 502 µM)
Dissolution multiple ([3]; Hydrochloric acid (pH = 1.2)): 1.38
Solubility ([3]; Hydrochloric acid (pH = 1.2)): 2.2 ± 0.26 µg/mL (≈ 4.6 µM)
Dissolution multiple ([3]; Isopropanol): 613
Solubility ([3]; Isopropanol): 980 ± 60 µg/mL (≈ 2050 µM)
Dissolution multiple ([3]; Liposome: Cholesterol): 46
Solubility ([3]; Liposome: Cholesterol): 60 ± 1 µg/mL (≈ 125 µM)
Dissolution multiple ([3]; Liposome: Lecithin): 40
Solubility ([3]; Liposome: Lecithin): 40 ± 5 µg/mL (≈ 83.6 µM)
Dissolution multiple ([3]; Methanol): 881
Solubility ([3]; Methanol): 1410 ± 130 µg/mL (≈ 2950 µM)
Dissolution multiple ([3]; PBS (pH = 7.4)): 0.5
Solubility ([3]; PBS (pH = 7.4)): 0.8 ± 0.15 µg/mL (≈ 1.67 µM)
Dissolution multiple [3, 9]: 0.81
Solubility [3, 9]: 1.3 ± 0.47 µg/mL (≈ 2.72 µM)
Dissolution multiple ([3]; Solid adjuvant F68): 8.1
Solubility ([3]; Solid adjuvant F68): 13 ± 3 µg/mL
Dissolution multiple ([3]; Solid adjuvant F127): 61
Solubility ([3]; Solid adjuvant F127): 98 ± 8 µg/mL
Dissolution multiple ([3]; Solid adjuvant HP-β-CD): 38
Solubility ([3]; Solid adjuvant HP-β-CD): 60 ± 3 µg/mL
Dissolution multiple ([3]; Solid adjuvant PEG2000): 4.4
Solubility ([3]; Solid adjuvant PEG2000): 7 ± 2 µg/mL
Dissolution multiple ([3]; Solid adjuvant PEG4000): 5
Solubility ([3]; Solid adjuvant PEG4000): 8 ± 1 µg/mL
Dissolution multiple ([3]; Solid adjuvant PEG6000): 3.8
Solubility ([3]; Solid adjuvant PEG6000): 6 ± 1 µg/mL
Dissolution multiple ([3]; Solid adjuvant SBE-β-CD): 44
Solubility ([3]; Solid adjuvant SBE-β-CD): 71 ± 4 µg/mL
Dissolution multiple ([3]; Soluplus): 400
Solubility ([3]; Soluplus): 515 ± 8 µg/mL (≈ 1080 µM)
Dissolution multiple ([3]; n-Octanol): 662
Solubility ([3]; n-Octanol): 1060 ± 80 µg/mL (≈ 2220 µM)
Solubility ([3]; water): 1.6 ± 0.05 µg/mL (≈ 3.35 µM)

Structure (SMILES): COc1ccc2[se]n(CCCCCCn3[se]c4ccc(O)cc4c3=O)c(=O)c2c1 [CPD14]
Solubility in 10% Soluplus [2]: >1000 µg/mL
Solubility in water [2]: 10 µg/mL (≈ 19.1 µM)
IC50 [4]: 0.49 ± 0.07 µM
stability rate in blood (Stability test in blood): significantly lower than that of the polymeric micelle
Tumor weight of H22 tumor transplant [5]: 2.15 ± 0.05 g
AUC0 h→24 h [6]: 9600 ± 1100 ng·h/mL
CL [6]: 17 ± 2 mL/min/kg
Cmax [6]: 6600 ± 700 ng/mL
T1/2β [6]: 102 ± 0.6 min
Tmax [6]: 1.98 min
IC50 [7]: 0.51 ± 0.04 µM

Solubility ([8]; DMSO, organic solvent or mixture, read-out: Solubility in DMSO): 22000 µg/mL (≈ 52100 µM)
Solubility ([8]; water, read-out: Solubility in Water): 2 to 3 µg/mL (≈ 4.74 to 7.11 µM)
Hydrophobic constant (Hydrophobic constant): 1.87
Structure (SMILES): O=c1c2ccccc2[se]n1CCn1[se]c2ccccc2c1=O [Ethaselen, ethaselen]
